According to patent publication US20030022856A1, “Method for sustained release local delivery of drugs for ablation of unwanted tissue” (The Regents Of The University of Michigan, priority 2001, published 2003):

Test system: organ cultured adipose tissue (epididymal fat tissue)
Test: Adipose organ culture apoptosis assay (Bax immunostaining)
Assay type: cell-based, rat
Settings: seven days incubation, 1 μg TNF-α
Protocol: Epididymal fat tissue was excised and cut into pieces (1 cm^3), and cultured. Briefly, tissue was placed in Dulbecco's Modified Eagle Medium containing 10% fetal bovine serum and penicillin/streptomycin, and incubated at 37° C. Samples (n=3) were injected with PBS, TNF-α protein (1 μg), blank microspheres, or microspheres containing TNF-α (total 1 μg TNF-α) and incubated at 37° C. After 3 or 7 days, the tissue was rinsed 1× with PBS, placed in 3.7% formaldehyde overnight and stored in 70% ethanol prior to sectioning for histology.
Tissue samples were bisected and subjected to butyl processing and paraffinization by standard procedures, at the histology core facility at the University of Michigan School of Dentistry. This process removes all lipids droplets from the tissue, enabling reproducible and rapid staining. […] Samples were counterstained with hematoxylin, imaged using a Nikon Eclipse E800, and Bax positive and negative cells were counted manually from at least 10 randomly chosen fields. Data were subjected to statistical analysis to determine the significance of the difference (P<0.05) among the measured population proportions of Bax positive cells, using a binomial equation. […]

Substance: tumor necrosis factor-alpha [TNF-α protein]
- Bax staining of adipose tissue: high levels of staining
- percentage of Bax positive cells (apoptotic cells) (1 cm^3 explanted tissue): 54%
